Reference: patent US9067937B2 (priority 2012, dated 2015)
Where “and” joins values, the source holds several entries; their conditions need not be identical. Equal values may be shown once. Where a name gives a salt, the structure may show the parent alone. Read-outs that look alike come from different tables or passages of the source.

Assays:
PC-14 xenografts = assay: Xenograft model antitumor assay (MELK-negative); format: in vivo, mice; conditions: PC-14 (MELK hardly detectable), 10 mg/kg oral once a day, 14 days
DU4475 cells = assay: Cell-based assay, anti-proliferative activity (Cell Counting Kit-8, 72 hours); design: species or system human
Method in brief: (§1)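 Cells seeded at 2,000–3,000 cells/well and exposed to candidate MELK inhibitors for 72 hours; growth measured with Cell Counting Kit-8. IC50 values calculated from the growth read-out.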

A549 cells = assay: as above; design: species or system human
Method in brief: as §1

T47D cells = assay: as above; design: species or system human
Method in brief: as §1

22Rv1 cells = assay: as above; design: species or system human
Method in brief: as §1

MIAPaCa-2 xenografts = assay: Xenograft model antitumor assay; design: species or system mice; conditions: mouse, in vivo
MDA-MB-231 xenografts = assay: Xenograft model antitumor assay; design: species or system mice; conditions: mouse, in vivo; dihydrochloride
HT1197 cells = assay: Cell-based assay, anti-proliferative activity, MELK-negative control (Cell Counting Kit-8, 72 hours); design: species or system human
Procedure: 100 micro-L of cell suspension was seeded onto 96-well microtiter plate (ViewPlate-96FTC, PerkinElmer). The initial cell concentration of 22Rv1, T47D, A549, DU4475, and HT1197 were 3,000 cells/well, 2,000 cells/well and 2,500 cells/well, respectively. Cellular growth was determined using Cell Counting Kit-8 (DOJINDO) at 72 hours after the exposure of the candidate inhibitors. […] Accurate IC50 values were calculated as described previously.

DU145 xenografts = assay: Xenograft model antitumor assay; design: species or system mice; conditions: mouse, in vivo
MELK = MELK (Homo sapiens, UniProt Q14680); assay: Kinase assay (IMAP fluorescence polarization, FITC-labeled histone H3 peptide); format: biochemical; conditions: 50 micro-M ATP
Chain of MELK (Q14680 whole entry, looked up): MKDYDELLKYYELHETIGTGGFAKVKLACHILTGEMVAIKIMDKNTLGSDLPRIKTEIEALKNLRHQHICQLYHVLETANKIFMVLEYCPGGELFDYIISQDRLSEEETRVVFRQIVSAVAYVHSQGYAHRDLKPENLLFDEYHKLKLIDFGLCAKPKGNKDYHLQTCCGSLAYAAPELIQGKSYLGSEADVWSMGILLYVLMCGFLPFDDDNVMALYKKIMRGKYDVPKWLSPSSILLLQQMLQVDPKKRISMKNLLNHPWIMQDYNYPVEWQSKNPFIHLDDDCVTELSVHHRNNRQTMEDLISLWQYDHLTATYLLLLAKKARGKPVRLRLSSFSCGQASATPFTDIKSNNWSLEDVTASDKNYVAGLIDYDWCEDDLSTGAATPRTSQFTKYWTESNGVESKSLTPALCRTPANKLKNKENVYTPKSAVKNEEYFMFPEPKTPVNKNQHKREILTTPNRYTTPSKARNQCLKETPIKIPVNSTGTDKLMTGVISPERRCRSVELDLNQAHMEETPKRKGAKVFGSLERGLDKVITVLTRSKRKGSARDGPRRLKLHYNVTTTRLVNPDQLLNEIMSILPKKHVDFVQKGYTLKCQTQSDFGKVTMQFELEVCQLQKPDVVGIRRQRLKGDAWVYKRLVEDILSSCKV
Method in brief: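 Kinase (0.8 ng/μL) reacted with 100 nM FITC-histone H3 peptide and 50 μM ATP in 20 mM HEPES, 0.3 mM MgCl2, 2 mM DTT, 0.01% Tween-20, pH 7.4, for 1 hour at room temperature. Phosphorylation read by IMAP fluorescence polarization after adding binding solution; IC50 from four-parameter fit.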

[1] = Homo sapiens, DU-4475, 72 h, read-out: IC50 (μM) (DU4475)
[2] = Homo sapiens, A549, 72 h, read-out: IC50 (μM) (A549)
[3] = Homo sapiens, T47D, 72 h, read-out: IC50 (μM) (T47D)
[4] = Homo sapiens, 22Rv1, 72 h, read-out: IC50 (μM) (22Rvl)
[5] = Homo sapiens, HT1197, 72 h, read-out: IC50 (μM) (HTll97)
[6] = DU4475 cells, 72 hours, read-out: IC50 (μM) (DU4475)
[7] = A549 cells, 72 hours, read-out: IC50 (μM) (A549)
[8] = T47D cells, 72 hours, read-out: IC50 (μM) (T47D)
[9] = 22Rv1 cells, 72 hours, read-out: IC50 (μM) (22Rvl)
[10] = HT1197 cells (MELK-negative control), 72 hours, read-out: IC50 (μM) (HTll97)

Row | Compound | Tumor growth suppressive effect (PC-14 xenografts) | IC50 (DU4475 cells; [1]) | IC50 (DU4475 cells; Homo sapiens, DU-4475, read-out: IC50, in vitro anti-proliferative assay) | IC50 (A549 cells; [2]) | IC50 (A549 cells; Homo sapiens, A549, read-out: IC50, in vitro anti-proliferative assay) | IC50 (T47D cells; [3]) | IC50 (T47D cells; Homo sapiens, T47D, read-out: IC50, in vitro anti-proliferative assay) | IC50 (22Rv1 cells; [4]) | IC50 (22Rv1 cells; Homo sapiens, 22Rv1, read-out: IC50, in vitro anti-proliferative assay) | Tumor growth inhibition (TGI) (MIAPaCa-2 xenografts) | Tumor growth inhibition (TGI) (MDA-MB-231 xenografts) | IC50 (HT1197 cells; [5]) | IC50 (HT1197 cells; Homo sapiens, HT1197, read-out: IC50, in vitro anti-proliferative assay) | Tumor growth inhibition (TGI) (DU145 xenografts) | IC50 (MELK) | IC50 (DU4475 cells; [6]) | IC50 (A549 cells; [7]) | IC50 (T47D cells; [8]) | IC50 (22Rv1 cells; [9]) | IC50 (HT1197 cells; [10])
1 | CC(=O)c1cnc2ccc(-c3cc(Cl)c(O)c(Cl)c3)nc2c1N[C@H]1CC[C@H](CN(C)C)CC1 [Example 6, 1-{6-(3,5-Dichloro-4-hydroxyphenyl)-4-({trans-4-[(dimethylamino)methyl]cyclohexyl}amino)-1,5-naphthyridin-3-yl}ethanone dihydrochloride] | no tumor growth suppressive effect | 0.0033 µM | 0.0023 µM | 0.0089 µM | 0.0067 µM | 0.0053 µM | 0.0043 µM | 0.0052 µM | 0.006 µM | 87% | 73% and 72% | 0.12 µM | 0.097 µM | 106% | – | – | – | – | – | –
2 | CC(=O)c1cnc2ccc(-c3cc(Cl)c(O)c(Cl)c3)nc2c1N[C@H]1CC[C@H](CN2CC[C@@H](F)C2)CC1 [Example 209, 1-[6-(3,5-dichloro-4-hydroxyphenyl)-4-({4-[((R)-3-fluoropyrrolidin-1yl)methyl]cyclohexyl}amino)-1,5-naphthyridin-3-yl]ethanone dihydrochloride] | – | 0.01 µM | – | 0.037 µM | – | 0.036 µM | – | 0.032 µM | – | – | – | 0.12 µM | – | – | 0.002 µM | – | – | – | – | –
3 | N[C@H]1CCCN(c2ccc(Nc3c(C(=O)C4CCC4)cnc4ccc(-c5cc(F)c(O)c(Cl)c5)nc34)cn2)C1 [Example 210, (S)-(4-((6-(3-aminopiperidin-1-yl)pyridin-3-yl)amino)-6-(3-chloro-5-fluoro-4-hydroxyphenyl)-1,5-naphthyridin-3-yl)(cyclobutyl)methanone dihydrochloride] | – | 0.022 µM | – | 0.042 µM | – | 0.0093 µM | – | 0.017 µM | – | – | – | 1.4 µM | – | – | 0.0014 µM | – | – | – | – | –
4 | CN(C)C[C@H]1CC[C@H](Nc2c(C(=O)C3CCC3)cnc3ccc(-c4cc(Cl)c(O)c(Cl)c4)nc23)CC1 [Example 211, (6-(3,5-dichloro-4-hydroxyphenyl)-4-((4-[(dimethylamino)methyl{cyclohexyl)amino)-1,5-naphthyridin-3-yl) (cyclobutyl)methanone dihydrochloride] | – | 0.003 µM | – | 0.0076 µM | – | 0.0034 µM | – | 0.0072 µM | – | – | – | 0.0077 µM | – | – | 0.0027 µM | – | – | – | – | –
5 | CN(C)C[C@H]1CC[C@H](Nc2c(C(=O)C3CCC3)cnc3ccc(-c4cc(F)c(O)c(Cl)c4)nc23)CC1 [Example 212, (6-(3-chloro-5-fluoro-4-hydroxyphenyl)-4-((4-((dimethylamino)methyl)cyclohexyl)amino)-1,5-naphthyridin-3-yl)(cyclobutyl)methanone dihydrochloride] | – | 0.003 µM | – | 0.014 µM | – | 0.0074 µM | – | 0.013 µM | – | – | – | 0.014 µM | – | – | 0.0016 µM | – | – | – | – | –
6 | CCC(=O)c1cnc2ccc(-c3cc(Cl)c(O)c(Cl)c3)nc2c1Nc1ccc(N2CCC[C@@H](N)C2)nc1 [Example 214, (R)-1-(4-((6-(3-aminopiperidin-1-yl)pyridin-3-yl)amino)-6-(3,5-dichloro-4-hydroxyphenyl)-1,5-naphthyridin-3-yl)propan-1-one trihydrochloride] | – | 0.004 µM | – | 0.013 µM | – | 0.0028 µM | – | 0.0059 µM | – | – | – | 0.34 µM | – | – | 0.0013 µM | – | – | – | – | –
7 | (R)-1-(4-{[6-(3-aminopiperidin-1- yl)pyridin-3-yl]amino}-6-(3,5- dichloro-4-hydroxyphenyl)-1,5- naphthyridin-3-yl)-2-methylpropan-1- one trihydrochloride [Example 215] | – | – | – | – | – | – | – | – | – | – | – | – | – | – | 0.0065 µM | 0.014 µM | 0.083 µM | 0.016 µM | 0.032 µM | 1.7 µM
8 | (S)-(4-{[6-(3-aminopiperidin-1- yl)pyridin-3-yl]amino}-6-(3-chloro-5- fluoro-4-hydroxyphenyl)-1,5- naphthyridin-3- yl)(cyclobutyl)methanone [Example 213] | – | – | – | – | – | – | – | – | – | – | – | – | – | – | 0.0011 µM | 0.003 µM | 0.029 µM | 0.0043 µM | 0.0071 µM | 1.7 µM
